Paper PMC9785311, “Effect of Structural Differences in Naringenin, Prenylated Naringenin, and Their Derivatives on the Anti-Influenza Virus Activity and Cellular Uptake of Their Flavanones” (Pharmaceuticals, 2022)
Read-outs that look alike come from different tables or passages of the source.

Experiments:
[1] = tested on: influenza virus A/PR/8/34; assay: microbe, parasite or virus in culture; assay type: cell-based, Type A influenza virus H1N1 (PR/8/34); conditions: for SI (Selectivity index = CC50/IC50): CC50 50% cytotoxicity concentration in MDCK cells (MTT), IC50 against A/PR/8/34
MDCK cells [2] = assay: Intracellular distribution by fluorescence microscopy of fixed cells; assay type: cell-based, canine; conditions: 30 μM, 180 min exposure, fixed with 4% paraformaldehyde, DAPI
Description: Cells cultured on glass plates were exposed to a concentration of 30 μM for 180 min. The exposed cells were washed with PBS and the compounds were removed from the medium. The cells were then fixed with 4% paraformaldehyde and observed under a fluorescence microscope. […] The amount of naringenin taken up by the cells may be small. Moreover, fluorescence was detected for prenylated naringenin.
Figure 4 Analysis of prenylated naringenin and naringenin fluorescence distribution by imaging. After removing the medium, cells were treated with 30 μM compound for 180 min and fixed with 4% paraformaldehyde. Fixed cells were stained with DAPI (blue). These images show fluorescence of 8-prenylnaringenin (8-PN; A), 6-prenylnaringenin (6-PN; B), and naringenin (C). Scale bars = 50 μm.
Cells were cultured on glass plates and incubated in a medium supplemented with the compound for 180 min. They were then washed and fixed with 4% paraformaldehyde for 30 min. After washing with PBS, DAPI staining was performed. Intracellular distribution was photographed and observed using an inverted fluorescence phase-contrast microscope (BZ-X800, Keyence, Osaka, Japan).

[3] = tested on: influenza virus A/PR/8/34; assay: Time-of-addition assay; assay type: cell-based, Type A influenza virus H1N1 (PR/8/34); conditions: 30 μM, MOI 0.01
Source text: We performed a time-of-addition assay to verify the effect of the prenyl group position on viral growth inhibition. Figure 7A,B show virus viability when exposed to each prenylated naringenin for each time duration. […] In previous studies, inhibitory effects differed depending on the flavonoid backbone. The anti-influenza virus effect depends on the position of the prenyl group, which is a novel observation of the present study.
Figure 7 Effect of prenylated naringenin on virus viability. (A) 8-PN and 6-PN (30 μM). (B) Schedule of the experiment. Cells were infected with influenza virus A/PR/8/34 at a multiplicity of infection of 0.01 in 24-well plates. After infection at each time point, the cells were harvested and viruses were assayed using a focus-forming reduction assay. […] Data are representative of three independent experiments. Standard deviation bars indicate each bar graph (*** p < 0.001, ** p < 0.01).
We conducted a time-of-addition assay as previously described. DMEM containing prenylated naringenin (30 μM) was added at −1–0 h (adsorption), 0–8 h (replication), 0–4 h, 0–2 h, 2–4 h, 4–8 h, 4–6 h, and 6–8 h. Furuta et al. estimated the intracellular cycle of infected cells before extracellular budding to be 8 h, and growth stages were assumed to occur at 2 h intervals.

MDCK cells [4] = assay: Cellular uptake by fluorescence microscopy; conditions: 30 μM compound, phenol red-free medium, 60-360 min, about 20 cells per time point
MDCK cells [5] = assay: Efflux of prenylated naringenin after intracellular saturation; assay type: cell-based, canine; conditions: for Release of intracellular compound from the cell: after 180 min exposure, compound-free DMEM containing 1% FBS, 0-240 min; for Fluorescence intensity change after 120 min culture in compound-free medium compared to 0 min: cells saturated by 180 min exposure, then DMEM containing 1% FBS for 120 min
Description: Based on our results, we examined the kinetics of intracellular prenylated naringenin in Dulbecco’s Modified Eagle Medium (DMEM) containing 1% fetal bovine serum (FBS). […] The intracellular kinetics changed greatly depending on the position of the prenyl group. After 120 min of culturing in the medium, the fluorescence intensity of 8-PN and 6-PN increased approximately 1.6-fold and 9.4-fold, respectively, compared to that at 0 min (Figure 6).
Figure 5 Efflux of prenylated naringenin after intracellular saturation. The amount of the compound in the cells was saturated by exposure for 180 min, and the cells were cultured in Dulbecco’s Modified Eagle Medium (DMEM) for 0, 120, and 240 min. After removing the medium, cells were fixed with 4% paraformaldehyde and stained with DAPI (blue). These images show 8-PN (A) and 6-PN (B) fluorescence. Scale bars = 50 μm.
Figure 6 Efflux and fluorescence intensity of intracellular prenylated naringenins. Fluorescence intensity of 8-PN and 6-PN from Figure 5. The standard deviation bars are indicated on each bar graph. *** p < 0.001.

[6] = A/PR/8/34 strain in MDCK cells, mean ± SD of three independent experiments, ND = not detected

Row | Compound | IC50 [1, 6] | SI (Selectivity index = CC50/IC50) [1] | IC50 ([1]; PR/8, MDCK) | melting point | further results
1 | C=CCc1c(O)cc2c(c1O)C(=O)C[C@@H](c1ccc(O)cc1)O2 (racemic) [2a, 6-allylnaringenin] | weaker activities than 6-PN | 0.8 | 103 ± 3.8 µM |  | 
2 | CC1(C)OC1Cc1c(O)cc(O)c2c1OC(c1ccc(O)cc1)CC2=O (stereo not drawn) [1a] |  | 2.7 | 59 ± 9 µM | 191.5 to 193 °C | 
3 | C=C(C)C(Cc1c(O)cc(O)c2c1OC(c1ccc(O)cc1)CC2=O)OC(C)=O (stereo not drawn) [1b] | lost and not active |  |  | 189 to 191.5 °C | 
4 | CC(=O)Oc1ccc(C2CC(=O)c3c(O)cc(OC(C)=O)c(CCC(C)C)c3O2)cc1 (stereo not drawn) [1c] |  | 6.3 | 42 ± 2.1 µM |  | 
5 | CC(C)CCc1c(O)cc(O)c2c1OC(c1ccc(O)cc1)CC2=O (stereo not drawn) [1d] |  | 3.0 | 61 ± 14 µM |  | 
6 | CC(=O)OC(Cc1c(O)cc(O)c2c1OC(c1ccc(O)cc1)CC2=O)C(C)C (stereo not drawn) [1e] | lost and not active |  |  | 155 to 156 °C | 
7 | CC(C)CCc1c(O)cc2c(c1O)C(=O)CC(c1ccc(O)cc1)O2 (stereo not drawn) [2b] | weaker activities than 6-PN | 1.3 | 58 ± 15.2 µM |  | 
8 | O=C1CC(c2ccc(O)cc2)Oc2cc(O)c(CC=C3CCCCC3)c(O)c21 (stereo not drawn) [2c] | not detected |  |  | 204.4 to 205.2 °C | 
9 | O=C1CC(c2ccc(O)cc2)Oc2cc(O)c(CCC3CCCCC3)c(O)c21 (stereo not drawn) [2d] | not detected |  |  | 213.3 to 215.3 °C | 
10 | CC(C)=CCc1c(O)cc2c(c1O)C(=O)C[C@@H](c1ccc(O)cc1)O2 [6-PN, 6-prenylnaringenin] |  | 5.5 | 38 ± 4.7 µM |  | Intracellular distribution of fluorescence (MDCK cells [2]): localize to the cytoplasmic periphery; Inhibition of virus growth, 2 h exposure (4–6 h after infection) [3]: high inhibition tendency; Inhibition of virus growth, late stage (6–8 h) [3]: block the late stage of viral growth; Fluorescence intensity (intracellular uptake) (MDCK cells [4]): high fluorescence intensity; Release of intracellular compound from the cell (MDCK cells [5]): released relatively quickly; Fluorescence intensity change after 120 min culture in compound-free medium compared to 0 min (MDCK cells [5]): ~9.4 fold
11 | CC(C)=CCc1c(O)cc(O)c2c1O[C@H](c1ccc(O)cc1)CC2=O [8-PN, 8-prenylnaringenin] |  | 4.9 | 24 ± 0.6 µM |  | Intracellular distribution of fluorescence (MDCK cells [2]): distributed mostly in the cytoplasm and nucleus; Inhibition of virus growth, exposure during virus adsorption period (−1–0 h) [3]: high inhibitory effect; Inhibition of virus growth, late stage (6–8 h) [3]: block the late stage of viral growth; Fluorescence intensity (intracellular uptake) (MDCK cells [4]): high fluorescence intensity; Release of intracellular compound from the cell (MDCK cells [5]): released from the cell slowly; Fluorescence intensity change after 120 min culture in compound-free medium compared to 0 min (MDCK cells [5]): approximately 1.6 fold
12 | CC(=O)Oc1ccc(C2CC(=O)c3c(O)cc(OC(C)=O)cc3O2)cc1 (stereo not drawn) [Naringenin-4′,7′-diacetate] |  |  |  |  | IC50 ([1]; A/PR/8/34 strain in MDCK cells, mean ± SD of three independent experiments, ND = not detected, listed as naringenin-4′,7-diacetate): markedly lost its anti-influenza activity; IC50 ([1]; A/PR/8/34 strain in MDCK cells, mean ± SD of three independent experiments, ND = not detected, listed as naringenin-4′,7′-diacetate): lost its activity
13 | CCC(CC)O[C@@H]1C=C(C(=O)O)C[C@H](N)[C@H]1NC(C)=O [oseltamivir acid, reference compound] |  |  | 0.002 µM |  | 
14 | (±)-Naringenin [reference compound] |  | 4.9 |  |  | IC50 ([1]; A/PR/8/34 strain in MDCK cells, mean ± SD of three independent experiments, ND = not detected, read-out: IC50): 290 ± 16.2 µM
